Measurements as given in patent US10702568B2, “Compositions containing silymarin and sulfoalkyl ether cyclodextrin and methods of using the same” (UNIVERSITY OF KANSAS, priority 2015, dated 2020).
Values after ≈ are worked out from the molar mass of the structure shown.

How the values were obtained:
[1] = Pharmacokinetic study in rat; type: in vivo; conditions: in vivo; for AUC(0-t): AUC(0-2 h) (ng · h/mL)
Procedure: The Silymarin-CAPTISOL® complex was administered to rat to test its pharmacokinetic properties.
On arrival rats were housed individually in cages at animal care facility in a temperature and humidity controlled room with a 12 h:12 h (light:dark) cycles. The rats were provided with free access to food and water for one week before using for experimental purpose. The 12 rats were equally divided into three groups—Group I: silymarin-CAPTISOL® complex with a CAPTISOL® concentration of 100 mM for oral administration; Group II: silymarin suspension (Control); and Group III: silymarin complex with a CAPTISOL® concentration of 100 mM for intravenous administration. The animals were fasted overnight with free access to water. On the day of experiment, the rat was removed from animal care facility and brought to the procedure lab. The animal was weighed and appropriate dosing volume was determined. For oral administration, rat's head was held in place by gently extending the head back and supporting the lower body. The gavage tube was placed in the mouth and advanced along the lower palate till the esophagus, and the silymarin was administered through the tube. For intravenous administration, the silymarin-CAPTISOL® complex was administered by slow bolus intravenous injection into the tail vein. Approximately 200 μL blood was drawn into heparin coated tubes at pre dose, 0.15, 0.5, 1, 2, 4, 8, 10 and 24 h for oral group II and for intravenous group III. The sampling time points were predose, 0.12, 0.25, 0.5, 1, 2, 4, 8 and 24 h through the jugular vein catheter. Plasma was harvested by centrifuging the blood at 4000 RPM for 5 min and stored frozen at −80±10° C. until analysis.
Stored plasma was thawed just before performing the silymarin components analysis. 200 μL of acetonitrile containing 0.1% of ammonia was added to 50 μL of plasma, and this mixture was vortexed for 5 min and centrifuged at 4° C. for 5 min at 10,000 RPM. After centrifugation, the supernatant was separated and injected into HPLC for analysis of silymarin constituents taxifolin, silydianin, silychristin, silybin A, silybin B, isosilybin A and isosilybin B.
The plasma concentration-time curves of silybin A, silybin B, isosilybin A, and isosilybin B in the Silymarin-CAPTISOL® sample of Group I and the control sample (silymarin suspension) are respectively shown in FIGS. 20A to 20D.

[2] = Log D of silymarin components (octanol/buffer, HPLC); type: physicochemical; conditions: pH 7.4
Procedure: (§1) Silymarin components including taxifolin, silydianin, silychristin, silybin A, silybin B, isosilybin A, and isosilybin B were tested for their solubility in water and also for their Log D value. The silymarin extract was obtained from Indena® (Indena Code: 9065110). The HPLC system consisted of Waters system equipped with performance PLUS inline degasser along dual λ absorbance detector set at 288 nm. The chromatographic separation of silymarin constituents was achieved on a Symmetry Shield RP18 column (150×4.6 mm, 5 μm); which was maintained at ambient room temperature conditions. The binary mobile phase system consisted of reservoir A (methanol: 10 mM ammonium acetate pH 5 [65:35 v/v]) and reservoir B (10 mM ammonium acetate, pH 5) were run as per gradient program (0-1.9 min: 25% A and 75% B; 2.0-14.9 min: 80% A and 20% B and 15-37.9 min: 80% A and 20% B and 38-40 min: 25% A and 75% B). The flow rate was 1 mL/min throughout the analytical run.
To determine the Log D of silymarin components, the silymarin extract (2 mg) was dissolved in 100% DMSO and then used for the experiment. Different buffers between pH ranges of 1.0 to 12 were prepared by using universal buffer stock containing 25 mM hydrochloric acid, 25 mM citric acid, 25 mM phosphoric acid, 30 mM boric acid and 20 mM sodium chloride. About 45 mL of universal buffer was titrated with Sodium hydroxide (5M) to obtain desired pH. A 10 μL of silymarin stock solution was spiked into Eppendorf tube containing 500 μL each of a buffer and presaturated octanol. This mixture was vortexed for 5 minutes and kept for shaking at room temperature. After 16 h, the mixture was centrifuged at 10,000 RPM for 30 minutes. After centrifugation buffer and octanol phases were separated, both phases were diluted with acetonitrile (1:1) and subject to HPLC analysis for quantitation of individual components of silymarin. The Log D values of each compound at a pH was determined by Log D (pH)=Log [Organic (peak area)/Aqueous (peak area)].

[3] = Solubility of silymarin components in water (Example 10, HPLC); type: physicochemical; conditions: for solubility: water
Procedure: as §1

[4] = Silymarin saturated solubility with CAPTISOL® (Example 1, HPLC); conditions: for solubility: 25 °C, thermodynamic from solid, Solubility (mg/ml) of flavonolignan components of silymarin, saturated with excess silymarin
Procedure: (§2) CAPTISOL® was dissolved in water to form four solutions with a CAPTISOL® concentration of 0.05 mol/L, 0.1 mol/L, 0.2 mol/L, and 0.3 mol/L respectively. 12 mg of silymarin powder (Sigma Aldrich) was added to 1 mL of each of the four CAPTISOL® solutions on Day 1, another 12 mg Silymarin powder was added on Day 3, and 19-22 mg Silymarin powder was added on Day 7 to ensure that silymarin reached its maximum solubility in each solution. The solutions were stirred in a water bath at 25° C. The solutions were then centrifuged prior to sampling. The supernatant was diluted in MeOH in preparation for HPLC assay.
(§3) A reference standard was prepared by mixing silymarin with methanol to provide a methanol solution with a silymarin concentration of 0.1 mg/ml.
(§4) HPLC was used to measure the relative concentrations of the different components of silymarin in each sample solution following the method described in Kuki et al., (2012) Chromatogram 75:175-180. The relative concentration of each component of silymarin was measured by comparing the normalized peak area units with that of the standard reference measured by the UV data at 288 nm and assuming equivalent extinction coefficients for all components.
(§5) The relative molar amounts of the ten flavonolignan components of silymarin were calculated by dividing the normalized peak area of each component in a sample by the total normalized peak area of the sample.
(§6) The concentration of each flavonolignan component of silymarin was calculated from the peak areas in Tables 1a and 1b and the total concentration of silymarin (0.1 mg/ml) in the reference sample, assuming constant extinction coefficients for each component.

[5] = Silymarin solubility in water, CAPTISOL® solution and γ-cyclodextrin solution (Example 2, HPLC); type: physicochemical; conditions: water, thermodynamic from solid, Solubility (mg/ml) of components of silymarin
Procedure: The solutions were centrifuged for 10 min at 13K rpm. An aliquot of the supernatant was diluted 1:5 for Water, 1:25 for γ-Cyclodextrin and 1:100 for both 0.20 M CAPTISOL® and 0.20M HP-B-Cyclodextrin using MeOH as the diluent. The standard reference was prepared by dissolving silymarin in 10 mg/mL of DMSO and then diluted to 0.50 mg/mL using MeOH.
The change of the saturated solubility of the various components of silymarin in each of the four types of samples can be seen in FIG. 4.
The data shown in Table 6 is plotted in FIGS. 5 and 6. The change of the solubility of the various components of silymarin in each of the three samples can be seen in FIG. 5. The total mutual saturated solubility of all flavonolignan components can be seen in FIG. 6. […] The various components of silymarin also have increased solubility in the CAPTISOL® (0.2M) sample.

physchem = conditions: 25 °C, water, thermodynamic from solid, Solubility (mg/ml) of flavonolignan components of silymarin
Procedure: as §2, §3, §4, §5, §6

[6] = 0.05 M CAPTISOL in water, aqueous with cosolvent or surfactant or cyclodextrin, CAPTISOL® (0.05M) in water
[7] = 0.1 M CAPTISOL in water, aqueous with cosolvent or surfactant or cyclodextrin, CAPTISOL® (0.1M) in water
[8] = 0.2 M CAPTISOL in water, aqueous with cosolvent or surfactant or cyclodextrin, CAPTISOL® (0.2M) in water
[9] = 0.3 M CAPTISOL in water, aqueous with cosolvent or surfactant or cyclodextrin, CAPTISOL® (0.3M) in water
[10] = CAPTISOL® (0.05M), saturated solubility
[11] = CAPTISOL® (0.1M), saturated solubility
[12] = CAPTISOL® (0.2M), saturated solubility
[13] = CAPTISOL® (0.3M), saturated solubility
[14] = H2O, saturated solubility, share of total normalized peak area
[15] = MeOH standard (0.1 mg/ml), reference, share of total normalized peak area

| Compound | % Fabs of silymarin-CAPTISOL® complex compared with silymarin alone ([1]; po) | AUC of Silymarin-CAPTISOL® complex compared with the control sample ([1]; po) | AUC(0-2 h) ([1]; po) [ng·h/mL] | Cmax of Silymarin-CAPTISOL® complex compared with the control sample ([1]; po) | Tmax ([1]; po) [min] | AUC(0-t) ([1]; iv) [ng·h/mL] | Cmax ([1]; iv, Cmax (ng/mL)) [ng/mL] | Tmax ([1]; iv, Tmax (h)) [min] | Tmax ([1]; po, Tmax (h)) [min] | solubility [4, 6] [µg/mL] | solubility [4, 7] [µg/mL] | solubility [4, 8] [µg/mL] | solubility [4, 9] [µg/mL] | Percentages of flavonolignan components of silymarin in the sample [4, 10] [%] | Percentages of flavonolignan components of silymarin in the sample [4, 11] [%] | Percentages of flavonolignan components of silymarin in the sample [4, 12] [%] | Percentages of flavonolignan components of silymarin in the sample [4, 13] [%] | solubility [5] [µg/mL] | logD at 16 h [2] | solubility [3] [µg/mL] | other results |
| --- | --- | --- | --- | --- | --- | --- | --- | --- | --- | --- | --- | --- | --- | --- | --- | --- | --- | --- | --- | --- | --- |
| COc1cc([C@@H]2Oc3ccc([C@H]4Oc5cc(O)cc(O)c5C(=O)[C@@H]4O)cc3O[C@H]2CO)ccc1O [Isosilybin B] | higher % Fabs | higher AUC | 433 | higher Cmax | 30 |  |  |  |  |  |  |  |  |  |  |  |  |  |  |  | AUC(0-2 h) ([1]; iv): 1417 ng·h/mL; Cmax ([1]; iv): 1308 ng/mL; Tmax ([1]; iv): 7.2 min; Log D (7.4 pH) [2]: 2.53; Solubility in water [3]: 6.36 µg/mL (≈ 13.2 µM) |
| COc1cc([C@H]2Oc3cc([C@H]4Oc5cc(O)cc(O)c5C(=O)[C@@H]4O)ccc3O[C@@H]2CO)ccc1O [Silybin A] | higher % Fabs | higher AUC | 271 | higher Cmax |  | 3440 | 7910 | 7.2 | 30 | 2230 (≈ 4620 µM) | 3800 (≈ 7880 µM) | 6370 (≈ 13200 µM) | 7330 (≈ 15200 µM) | 9.55 | 9.86 | 9.64 | 10.22 | 30 (≈ 62.2 µM) | 2.26 | 7.71 (≈ 16 µM) | Percentages of flavonolignan components of silymarin in the sample [4, 14]: 3.15%; Percentages of flavonolignan components of silymarin in the sample ([4]; H2O, saturated solubility, share of total normalized peak area, listed as silybin A): about 3.15%; Percentages of flavonolignan components of silymarin in the sample [4, 15]: 25.35%; solubility ([4]; water, H2O): 20 µg/mL (≈ 41.5 µM) |
| COc1cc([C@H]2Oc3ccc([C@H]4Oc5cc(O)cc(O)c5C(=O)[C@@H]4O)cc3O[C@@H]2CO)ccc1O [Isosilybin A] | higher % Fabs | higher AUC | 150 | higher Cmax |  | 1970 | 4160 | 4.2 | 30 |  |  |  |  |  |  |  |  | 40 (≈ 82.9 µM) | 2.47 | 18.8 (≈ 39 µM) | solubility (physchem): 40 µg/mL (≈ 82.9 µM) |

The next lines start with results.

| % Fabs of silymarin-CAPTISOL® complex compared with silymarin alone ([1]; po) | AUC of Silymarin-CAPTISOL® complex compared with the control sample ([1]; po) | AUC(0-2 h) ([1]; po) [ng·h/mL] | Cmax of Silymarin-CAPTISOL® complex compared with the control sample ([1]; po) | Tmax ([1]; po) [min] | AUC(0-t) ([1]; iv) [ng·h/mL] | Cmax ([1]; iv, Cmax (ng/mL)) [ng/mL] | Tmax ([1]; iv, Tmax (h)) [min] | Tmax ([1]; po, Tmax (h)) [min] | solubility [4, 6] [µg/mL] | solubility [4, 7] [µg/mL] | solubility [4, 8] [µg/mL] | solubility [4, 9] [µg/mL] | Percentages of flavonolignan components of silymarin in the sample [4, 10] [%] | Percentages of flavonolignan components of silymarin in the sample [4, 11] [%] | Percentages of flavonolignan components of silymarin in the sample [4, 12] [%] | Percentages of flavonolignan components of silymarin in the sample [4, 13] [%] | solubility [5] [µg/mL] | logD at 16 h [2] | solubility [3] [µg/mL] | Compound | other results |
| --- | --- | --- | --- | --- | --- | --- | --- | --- | --- | --- | --- | --- | --- | --- | --- | --- | --- | --- | --- | --- | --- |
|  |  |  |  |  |  |  |  |  |  |  |  |  |  |  |  |  | 120 (≈ 249 µM) | 1.64 | 232 (≈ 481 µM) | COc1cc([C@@H]2[C@H]3CO[C@@]4(O)C(=O)[C@@H]2C=C([C@H]2Oc5cc(O)cc(O)c5C(=O)[C@@H]2O)[C@@H]34)ccc1O [Silydianin] | solubility (physchem): 70 µg/mL (≈ 145 µM) |
|  |  | 395 |  | 37.8 | 5070 | 12700 | 7.2 | 30 | 5590 (≈ 11600 µM) | 8930 (≈ 18500 µM) | 13800 (≈ 28600 µM) | 15800 (≈ 32600 µM) | 24.01 | 23.18 | 20.90 | 21.96 | 30 (≈ 62.2 µM) | 1.99 | 21.9 (≈ 45.4 µM) | COc1cc([C@@H]2Oc3cc([C@H]4Oc5cc(O)cc(O)c5C(=O)[C@@H]4O)ccc3O[C@H]2CO)ccc1O [Silybin B] | Percentages of flavonolignan components of silymarin in the sample [4, 14]: 7.72%; Percentages of flavonolignan components of silymarin in the sample ([4]; H2O, saturated solubility, share of total normalized peak area, listed as silybin B): about 7.72%; Percentages of flavonolignan components of silymarin in the sample [4, 15]: 32.00%; solubility ([4]; water, H2O): 50 µg/mL (≈ 104 µM) |
